Source: US11787855B2, “Egg, fertilized egg, or embryo quality improving agent” (MPO, INC., priority 2016, dated 2023)

Assays:
[1] = system: fertilized eggs of young mice; test: In vitro culture of young mouse embryo with added CXCL5, blastocyst reaching rate; type: cell-based; details: vs non-added control group (FIG. 5)
Experimental: Mice past 3 weeks and 42 weeks of age confirmed the sexual cycle by vaginal smear. 10 IU of gonadotropin (ASKA Pharmaceutical. Co., Tokyo, Japan) was intraperitoneally administered at the time of proestrus. Cumulus oocyte complexes (COCs) were collected from a fallopian tube 15 hours after administration, and precultured for 30 minutes in 100 μl TYH medium (LSI Medience corporation, Tokyo, Japan). Meanwhile, ICR male mice (10-12 weeks old) were subjected to general anesthesia with somnopentyl anesthetic (Kyoritsuseiyaku Corporation, Tokyo, Japan), and cauda epididymis was extracted. A portion of the cauda epididymis was incised, and the internal sperm was extruded and collected. […] After culturing, the sperm was removed from the egg in 30 μl KSOM Medium (Merck Millipore, Darmstadt, Germany), and the number of 2 cell stage embryos was calculated at that time. […] The blastocyst reaching rate was calculated as the number of blastocysts/the number of two cell stage embryos.
In the in vitro culture system of young mouse embryo, whether or not there was a change in blastocyst reaching rate, implantation rate, offspring acquisition rate by adding the candidate factor was examined using a similar method to Example 2. Expression in the embryos of aging markers p16, p21, p53, PAI-1, and IL-6 was measured, and whether or not cell aging was induced was investigated. […]

[2] = system: blastocysts of young mice transplanted into pseudopregnant mice; test: Embryo transplantation of young mouse blastocysts obtained with added CXCL5 into pseudopregnant mice; type: in vivo
Source text: After culturing for 4 days, an embryo reaching a blastocyst stage embryo was transplanted. Recipient mice were ICR female mice of 6 to 10 weeks of age, and mated with ICR male mice vasoligated on the day before a harvesting day, and an individual whose vaginal plug could be confirmed the next day was used. General anesthesia was given with somnopentyl anesthetic, and the uterus was exposed by a back dorsal incision. The uterus was fixed with tweezers, a 30 G injection needle (Dentronics, Tokyo, Japan) was drilled at an oviduct joint, a glass capillary with blastocyst aspirated was inserted, and the embryo was transplanted into the uterus. After transplantation, the uterus was carefully returned to the body, and the retroperitoneum and the skin were sutured. At the time of transplantation, blastocysts obtained from mice of each group were transplanted into recipient mice for each individual. Cesarean section was carried out on the 19th day with the next day of egg collection as the first day. Recipient mice were euthanized and underwent laparotomy, and the uterus was extracted and the fetus was removed. Implantation rate was calculated as the number of implantation traces/the number of embryo transplantations, and the offspring acquisition rate was calculated as the litter size/the number of implantation traces.
Based on the method described in Example 2, blastocysts of the control group and the drug treated group were transplanted into pseudopregnant mice. The implantation rate and the offspring acquisition rate were then calculated.

[3] = system: aging markers (p16, p21, p53, PAI-1, IL-6) in young mouse embryos; test: Expression levels of aging markers in embryos by Realtime RT-PCR; type: cell-based; details: embryos to which CXCL5 was added (n=30)
Experimental: In the in vitro culture system of young mouse embryo, whether or not there was a change in blastocyst reaching rate, implantation rate, offspring acquisition rate by adding the candidate factor was examined using a similar method to Example 2. Expression in the embryos of aging markers p16, p21, p53, PAI-1, and IL-6 was measured, and whether or not cell aging was induced was investigated. Specifically, the experiment was carried out as follows.
Expression levels of aging markers (p16, p21, p53, PAI-1, IL-6) in embryos to which CXCL5 was added (n=30) were measured using Realtime RT-PCR.

[4] = system: fertilized eggs of aged mice; test: In vitro culture of aged mouse embryo, blastocyst reaching rate; type: cell-based; details: fertilized eggs of 42-week-old aged mice, different concentrations, cultured 4 days, control group vs drug treated group (FIG. 2)
Experimental: (§1) Ovulated mature eggs were collected from 42-week-old aged mice and subjected to in vitro fertilization, the obtained fertilized egg (zygote) was in vitro cultured using a culture medium to which a neutralizing antibody of a candidate factor or an antagonist of a specific receptor was added, and the blastocyst reaching rate was determined in order to verify embryo development ability. The obtained blastocysts were embryo transplanted into pseudopregnant mice, for which the implantation rate and the offspring acquisition rate were examined, and the quality of embryos was further evaluated. Specifically, the experiment was carried out as follows.
ICR female mice (CLEA Japan, Inc., Tokyo, Japan) were used as laboratory animals. The mice were bred at a room temperature of 22° C. and a humidity of 55% under light and dark environments every 12 hours. MF control diet (Oriental Yeast Co., ltd., Tokyo, Japan) was given 6 g per mouse per day. Water was allowed to be freely ingested at any time. […]
Mice past 3 weeks and 42 weeks of age confirmed the sexual cycle by vaginal smear. […] After culturing, the sperm was removed from the egg in 30 μl KSOM Medium (Merck Millipore, Darmstadt, Germany), and the number of 2 cell stage embryos was calculated at that time. […] The blastocyst reaching rate was calculated as the number of blastocysts/the number of two cell stage embryos.

[5] = system: blastocysts of aged mice transplanted into pseudopregnant mice; test: Embryo transplantation of aged mouse blastocysts into pseudopregnant mice, implantation rate and offspring acquisition rate; type: in vivo; details: only antagonist 10 nM added (FIG. 4)
Experimental: as §1
After culturing for 4 days, an embryo reaching a blastocyst stage embryo was transplanted. Recipient mice were ICR female mice of 6 to 10 weeks of age, and mated with ICR male mice vasoligated on the day before a harvesting day, and an individual whose vaginal plug could be confirmed the next day was used. General anesthesia was given with somnopentyl anesthetic, and the uterus was exposed by a back dorsal incision. […] Implantation rate was calculated as the number of implantation traces/the number of embryo transplantations, and the offspring acquisition rate was calculated as the litter size/the number of implantation traces.

[6] = T-test *P<0.05 vs control (FIG. 7)
[7] = heat-denatured CXCL5 1,000 nM vs control group

Molecule: CXCL5: CXCL5 (ab9803, abcam), a chemokine, added to young mouse embryo culture
- blastocyst reaching rate ([1]; CXCL5 100 nM, 300 nM, 1,000 nM, cultured 4 days): not significantly different
- offspring acquisition rate ([2]; CXCL5-added group vs control group (FIG. 6)): no significant difference
- implantation rate ([2]; CXCL5-added group vs control, *P<0.05 (FIG. 6)): decreased
- implantation rate ([2]; CXCL5 added at 1,000 nM vs non-addition control group (FIG. 6)): a significant difference was observed
- expression level of IL-6 [3, 6]: significant increase
- expression level of PAI-1 [3, 6]: significant increase
- expression level of p21 [3, 6]: significant increase
- expression level of p53 [3, 6]: significant increase
- expression level of p16 ([3]; vs control): no significant difference

Molecule: O=C(Nc1ccc([N+](=O)[O-])cc1O)Nc1ccccc1Br [antagonist, SB225002]
- blastocyst reaching rate [4]: no significant difference
- implantation rate [5]: tended to be higher
- offspring acquisition rate [5]: tended to be higher

Molecule: heat-denatured CXCL5: CXCL5 (ab9803, abcam) heat-denatured (95° C., 5 min), used at 1,000 nM
- blastocyst reaching rate ([1]; heat-denatured (95° C., 5 min) CXCL5 1,000 nM): not significantly different
- implantation rate [2, 7]: no significant difference
- offspring acquisition rate [2, 7]: no significant difference
